Test results: ChEMBL document CHEMBL1212831, “Discovery of N-[(2S)-5-(6-fluoro-3-pyridinyl)-2,3-dihydro-1H-inden-2-yl]-2-propanesulfonamide, a novel clinical AMPA receptor positive modulator” (J Med Chem, 2010); call rule not given here
≈ marks a conversion by molar mass, not a printed value.

Tests used:
[1] = Plasma protein binding in human at 1 ug/ml after 6 hrs by equilibrium dialysis method; type: ADME, cell-free; conditions: read-out: PPB (converted)
Brain [2] = assay: Brain tissue binding in rat at 1 ug/ml after 6 hrs by equilibrium dialysis method; type: ADME, tissue-based
[3] = Blood clearance in Beagle dog at 0.125 mg/kg, iv and 0.5 mg/kg, po; type: ADME, organism-based, Canis lupus familiaris
Canis familiaris = assay: Liver blood flow in Beagle dog at 0.125 mg/kg, iv and 0.5 mg/kg, po; type: ADME, organism-based, Canis lupus familiaris; conditions: in vivo
[4] = Oral bioavailability in Beagle dog at 0.5 mg/kg; type: ADME, organism-based, Canis lupus familiaris; conditions: in vivo
[5] = Cmax in Beagle dog at 0.5 mg/kg, po; type: ADME, organism-based, Canis lupus familiaris; parameters: dose 0.5 mg/kg, route oral; conditions: in vivo
[6] = Half life in Beagle dog at 0.5 mg/kg, po; type: ADME, organism-based, Canis lupus familiaris; parameters: dose 0.5 mg/kg, route oral; conditions: in vivo
[7] = Blood clearance in cynomolgus monkey at 0.125 mg/kg, iv and 0.5 mg/kg, po; type: ADME, organism-based, Macaca fascicularis
Cynomolgus monkey [8] = assay: Liver blood flow in cynomolgus monkey at 0.125 mg/kg, iv and 0.5 mg/kg, po; type: ADME, organism-based, Macaca fascicularis; conditions: in vivo
[9] = Half life in cynomolgus monkey at 0.125 mg/kg, iv; type: ADME, organism-based, Macaca fascicularis; parameters: dose 0.125 mg/kg, route intravenous; conditions: in vivo
[10] = Oral bioavailability in cynomolgus monkey at 0.5 mg/kg; type: ADME, organism-based, Macaca fascicularis; conditions: in vivo
[11] = Half life in cynomolgus monkey at 0.5 mg/kg, po; type: ADME, organism-based, Macaca fascicularis; parameters: dose 0.5 mg/kg, route oral; conditions: in vivo
[12] = Equilibrium solubility of the compound in water at pH 2 to 10; type: physicochemical
[13] = Equilibrium solubility of the compound in simulated gastric fluid at pH 2 to 10; type: physicochemical
[14] = Equilibrium solubility of the compound in fed simulated intestinal fluid at pH 2 to 10; type: physicochemical
[15] = Chemical stability of the compound; type: physicochemical
[16] = target: T1, Nuclear receptor subfamily 1 group I member 2 (Rattus norvegicus, UniProt Q9R1A7); assay: Activation of rat PXR
T1 sequence (Q9R1A7 whole entry): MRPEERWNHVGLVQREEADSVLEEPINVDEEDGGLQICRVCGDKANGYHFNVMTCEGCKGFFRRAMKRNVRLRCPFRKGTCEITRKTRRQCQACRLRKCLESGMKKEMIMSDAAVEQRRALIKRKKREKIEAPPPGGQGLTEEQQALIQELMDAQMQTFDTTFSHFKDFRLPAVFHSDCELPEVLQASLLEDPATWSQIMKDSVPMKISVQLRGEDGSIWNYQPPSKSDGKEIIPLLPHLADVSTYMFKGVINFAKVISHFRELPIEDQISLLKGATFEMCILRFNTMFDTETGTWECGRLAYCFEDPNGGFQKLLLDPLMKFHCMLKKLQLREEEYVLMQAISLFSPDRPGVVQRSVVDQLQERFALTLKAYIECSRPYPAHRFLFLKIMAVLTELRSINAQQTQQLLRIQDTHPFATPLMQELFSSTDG

[17] = target: T2, Nuclear receptor subfamily 1 group I member 2 (Homo sapiens, UniProt O75469); assay: Activation of human PXR
T2 sequence (O75469 whole entry): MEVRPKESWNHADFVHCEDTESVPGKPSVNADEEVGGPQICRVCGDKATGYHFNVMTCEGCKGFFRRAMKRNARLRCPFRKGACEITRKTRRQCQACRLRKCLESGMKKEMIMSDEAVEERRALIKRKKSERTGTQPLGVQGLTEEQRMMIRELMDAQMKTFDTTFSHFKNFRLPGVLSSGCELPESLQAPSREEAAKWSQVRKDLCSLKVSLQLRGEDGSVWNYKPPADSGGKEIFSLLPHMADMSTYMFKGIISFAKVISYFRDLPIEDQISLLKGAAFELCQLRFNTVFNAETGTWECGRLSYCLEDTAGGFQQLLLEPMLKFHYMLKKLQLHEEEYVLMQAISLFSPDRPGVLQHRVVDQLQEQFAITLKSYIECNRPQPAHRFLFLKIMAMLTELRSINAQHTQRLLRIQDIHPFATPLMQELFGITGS

[18] = Plasma protein binding in mouse at 1 ug/ml after 6 hrs by equilibrium dialysis method; type: ADME, cell-free; conditions: read-out: PPB (converted)
[19] = Plasma protein binding in dog at 1 ug/ml after 6 hrs by equilibrium dialysis method; type: ADME, cell-free, Canis lupus familiaris; conditions: read-out: PPB (converted)
[20] = Plasma protein binding in monkey at 1 ug/ml after 6 hrs by equilibrium dialysis method; type: ADME, cell-free, Macaca mulatta; conditions: rhesus monkey, read-out: PPB (converted)
Cynomolgus monkey [21] = assay: Cardiotoxicity in conscious cynomolgus monkey up to 2.5 mg/kg, po; type: toxicity, organism-based, Macaca fascicularis; parameters: dose 2.5 mg/kg, route oral; conditions: in vivo
[22] = target: Voltage-gated inwardly rectifying potassium channel KCNH2 (Homo sapiens, UniProt Q12809); assay: Inhibition of human ERG
Chain of Voltage-gated inwardly rectifying potassium channel KCNH2 (Q12809 whole entry): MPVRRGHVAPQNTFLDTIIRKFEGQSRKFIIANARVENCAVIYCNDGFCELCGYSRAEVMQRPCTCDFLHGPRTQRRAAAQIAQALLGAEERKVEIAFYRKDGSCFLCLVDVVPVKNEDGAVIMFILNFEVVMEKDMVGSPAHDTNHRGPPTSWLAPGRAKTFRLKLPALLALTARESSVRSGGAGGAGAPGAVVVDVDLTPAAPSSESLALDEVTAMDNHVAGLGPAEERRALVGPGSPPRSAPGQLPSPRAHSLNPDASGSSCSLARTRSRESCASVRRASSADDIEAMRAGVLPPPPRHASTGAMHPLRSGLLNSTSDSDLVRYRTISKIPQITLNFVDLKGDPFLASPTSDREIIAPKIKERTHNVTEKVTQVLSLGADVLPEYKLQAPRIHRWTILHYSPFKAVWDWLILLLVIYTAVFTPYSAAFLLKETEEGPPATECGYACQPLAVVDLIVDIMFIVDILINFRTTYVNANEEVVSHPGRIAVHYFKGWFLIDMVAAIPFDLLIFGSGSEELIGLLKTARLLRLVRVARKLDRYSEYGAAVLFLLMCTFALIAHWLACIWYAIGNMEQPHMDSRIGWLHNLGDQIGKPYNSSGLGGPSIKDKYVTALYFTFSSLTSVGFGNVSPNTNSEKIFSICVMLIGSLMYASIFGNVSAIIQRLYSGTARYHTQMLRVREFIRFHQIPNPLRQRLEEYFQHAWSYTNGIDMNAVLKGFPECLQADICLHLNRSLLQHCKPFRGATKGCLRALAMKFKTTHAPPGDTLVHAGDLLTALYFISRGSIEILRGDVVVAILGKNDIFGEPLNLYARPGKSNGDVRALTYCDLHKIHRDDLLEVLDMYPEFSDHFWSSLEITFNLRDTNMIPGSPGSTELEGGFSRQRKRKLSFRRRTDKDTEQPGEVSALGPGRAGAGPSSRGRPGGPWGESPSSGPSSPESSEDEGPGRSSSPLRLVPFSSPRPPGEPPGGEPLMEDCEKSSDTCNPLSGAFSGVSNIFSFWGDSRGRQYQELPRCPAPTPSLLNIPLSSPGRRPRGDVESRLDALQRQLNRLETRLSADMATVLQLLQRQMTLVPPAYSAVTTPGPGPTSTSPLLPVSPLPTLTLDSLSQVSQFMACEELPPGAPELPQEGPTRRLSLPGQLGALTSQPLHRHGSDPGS

Rattus norvegicus = assay: Cognitive enhancing effect in po dosed Lister Hooded rat assessed as reversal of 24 hrs delay-induced retention deficit behavior by novel object recognition assay; type: functional; conditions: read-out: MED
Brain [23] = assay: Drug level in po dosed Lister Hooded rat brain assessed per gram of tissue; type: ADME, organism-based; conditions: in vivo
[24] = Blood clearance in Sprague-Dawley rat at 1 mg/kg, iv and 3 mg/kg, po; type: ADME, organism-based
[25] = Half life in Sprague-Dawley rat at 1 mg/kg, iv and 3 mg/kg, po; type: ADME, organism-based; conditions: in vivo
[26] = Volume of distribution at steady state in Sprague-Dawley rat at 1 mg/kg, iv and 3 mg/kg, po; type: ADME, organism-based; conditions: in vivo, read-out: Vdss
[27] = Cmax in Sprague-Dawley rat at 3 mg/kg, po; type: ADME, organism-based; parameters: dose 3 mg/kg, route oral; conditions: in vivo
[28] = Tmax in Sprague-Dawley rat at 3 mg/kg, po; type: ADME, organism-based; parameters: dose 3 mg/kg, route oral; conditions: in vivo
Cytochrome P450 1A2 = target: T3, Cytochrome P450 1A2 (Homo sapiens, UniProt P05177)
T3 sequence (P05177 whole entry): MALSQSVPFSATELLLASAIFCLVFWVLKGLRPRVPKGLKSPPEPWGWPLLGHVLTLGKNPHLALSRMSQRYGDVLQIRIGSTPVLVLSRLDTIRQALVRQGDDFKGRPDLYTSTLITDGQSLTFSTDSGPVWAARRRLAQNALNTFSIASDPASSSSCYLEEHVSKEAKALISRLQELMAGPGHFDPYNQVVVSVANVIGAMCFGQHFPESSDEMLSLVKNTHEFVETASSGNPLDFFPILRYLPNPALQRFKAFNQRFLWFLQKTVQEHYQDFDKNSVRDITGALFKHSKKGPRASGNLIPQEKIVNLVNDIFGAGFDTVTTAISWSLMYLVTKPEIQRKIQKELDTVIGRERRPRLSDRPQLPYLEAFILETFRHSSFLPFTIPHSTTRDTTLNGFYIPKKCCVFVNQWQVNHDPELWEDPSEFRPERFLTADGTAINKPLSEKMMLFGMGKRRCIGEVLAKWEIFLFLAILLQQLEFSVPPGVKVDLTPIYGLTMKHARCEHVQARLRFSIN
Description: Inhibition of human CYP1A2 after 10 mins

Cytochrome P450 2C19 = Cytochrome P450 2C19 (Homo sapiens, UniProt P33261)
Chain of Cytochrome P450 2C19 (P33261 whole entry): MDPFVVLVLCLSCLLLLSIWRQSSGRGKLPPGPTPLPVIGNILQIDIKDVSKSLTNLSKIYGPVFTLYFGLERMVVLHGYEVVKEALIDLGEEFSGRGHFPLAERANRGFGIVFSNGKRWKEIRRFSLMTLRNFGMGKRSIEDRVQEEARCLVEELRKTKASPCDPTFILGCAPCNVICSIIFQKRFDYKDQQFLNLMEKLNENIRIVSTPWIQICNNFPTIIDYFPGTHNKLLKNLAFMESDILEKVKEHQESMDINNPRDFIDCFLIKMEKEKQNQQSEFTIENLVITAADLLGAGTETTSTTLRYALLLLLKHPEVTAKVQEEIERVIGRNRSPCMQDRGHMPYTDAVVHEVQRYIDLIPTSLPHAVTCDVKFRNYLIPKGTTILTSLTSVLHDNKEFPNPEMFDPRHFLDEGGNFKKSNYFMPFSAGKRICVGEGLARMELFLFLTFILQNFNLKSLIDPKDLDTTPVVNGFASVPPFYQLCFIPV
Description: Inhibition of human CYP2C19 after 10 mins

Cytochrome P450 3A4 = Cytochrome P450 3A4 (Homo sapiens, UniProt P08684)
Chain of Cytochrome P450 3A4 (P08684 whole entry): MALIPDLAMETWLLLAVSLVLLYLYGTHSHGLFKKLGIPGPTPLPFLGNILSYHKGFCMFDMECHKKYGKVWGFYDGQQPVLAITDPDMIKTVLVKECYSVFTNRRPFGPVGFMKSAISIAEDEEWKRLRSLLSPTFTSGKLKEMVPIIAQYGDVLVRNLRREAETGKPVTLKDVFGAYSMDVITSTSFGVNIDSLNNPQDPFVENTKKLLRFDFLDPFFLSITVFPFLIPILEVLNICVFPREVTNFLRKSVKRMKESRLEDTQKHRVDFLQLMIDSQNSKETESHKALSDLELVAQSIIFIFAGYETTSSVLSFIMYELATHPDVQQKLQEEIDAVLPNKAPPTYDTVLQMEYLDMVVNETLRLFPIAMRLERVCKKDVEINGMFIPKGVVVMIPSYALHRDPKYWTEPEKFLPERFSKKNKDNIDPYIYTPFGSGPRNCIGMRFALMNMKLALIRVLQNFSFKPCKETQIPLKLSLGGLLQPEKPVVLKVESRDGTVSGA
Description: Inhibition of human CYP3A4 after 10 mins

in vivo = conditions: rat, brain/blood
Description: Ratio of brain AUC (0 to t) to blood AUC (0 to t) in rat

fraction unbound at 6 h, 1 ug/ml [1]: 0.092 | Activity (Brain [2]): 97.4% | clearance [3]: 3.4 mL/min/kg | LBF (Canis familiaris): 11% | bioavailability [4]: 61% | Cmax [5]: 116 ng/mL | half-life [6]: 17 h | clearance [7]: 1.4 mL/min/kg | LBF (Cynomolgus monkey [8]): 3% | half-life [9]: 15 h | bioavailability [10]: 51% | half-life [11]: 24 h | solubility thermodynamic [12]: 100 µg/mL (≈ 299 µM) | solubility thermodynamic [13]: 100 µg/mL (≈ 299 µM) | solubility thermodynamic [14]: 100 µg/mL (≈ 299 µM) | Stability [15]: Stable | Activity [16]: Not Active | Activity [17]: Not Active | fraction unbound at 6 h, 1 ug/ml [18]: 0.15 | fraction unbound at 6 h, 1 ug/ml [19]: 0.205 | fraction unbound at 6 h, 1 ug/ml [20]: 0.152 | Drug uptake (Brain [23]): 122 ng/g | clearance [24]: 5.4 mL/min/kg | half-life [25]: 5 h | Vd [26]: 2.4 L/kg | Cmax [27]: 416 ng/mL | Tmax [28]: 3 h | IC50 (Cytochrome P450 1A2): > 10 µM | IC50 (Cytochrome P450 2C19): > 10 µM | IC50 (Cytochrome P450 3A4): > 10 µM | IC50 (Liver microsomes): < 0.7 µM | Kp (in vivo): 2.1
Compound: CC(C)S(=O)(=O)N[C@H]1Cc2ccc(-c3ccc(F)nc3)cc2C1 [GSK-729327]
Activity (Cynomolgus monkey [21]): Non-toxic | inhibition (INH) [22]: Not Active | minimal effective dose (Rattus norvegicus): 0.3 mg/kg
